Among the data in patent US20210251991A1, “SUBSTITUTED 2,2'-BIPYRIMIDINYL COMPOUNDS, ANALOGUES THEREOF, AND METHODS USING SAME” (priority 2018, published 2021) are EC50 values, retold here.

The test system of the experiment is HBsAg in HepG2.2.15 cells. Put plainly: HBsAg assay: inhibition of HBsAg in HepG2.2.15 cells (chemiluminescence immunoassay of supernatant). It counts as cell-based, hepatitis B virus. The note with it: Hepatitis B virus, HepG2.2.15, 144 h, read-out: sAg EC50, HepG2.2.15 cells, supernatant collected at day 6 after exposure, HBsAg CLIA. Summed up: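 HepG2.2.15 cells treated with serially diluted compounds (0.5% DMSO), medium and compound refreshed after 2-3 days; supernatant HBsAg measured by chemiluminescence immunoassay at day 6. EC50 from dose-response curves; viability assessed in parallel by CellTiter-Glo.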
With `CCC1c2ccc(F)c(F)c2CCN1c1cc(=O)c(C(=O)O)c[nH]1` (centres unmarked) [Example 112, 6-(1-Ethyl-5,6-difluoro-3,4-dihydro-1H-isoquinolin-2-yl)-4-hydroxy-pyridine-3-carboxylic Acid], the EC50 (usually the concentration that produces a half-maximal response) is 11000 nM.

As for `CCC1c2ccc(F)c(F)c2CCN1c1cnc(C(=O)O)nc1` (centres unmarked) [Example 113, 5-(1-Ethyl-5,6-difluoro-3,4-dihydro-1H-isoquinolin-2-yl)pyrimidine-2-carboxylic Acid], the EC50 was found to be 2000 nM. On to `CCC1c2cc(F)c(OC)cc2CCN1c1cnc(C(N)=O)nc1` (centres unmarked) [Example 118, 5-(1-Ethyl-7-fluoro-6-methoxy-3,4-dihydro-1H-isoquinolin-2-yl)pyrimidine-2-carboxamide], for which the concentration giving a half-maximal response (EC50) is 520 nM. Then `CCC1c2cc(F)c(F)cc2CN1c1cnc(C(N)=O)nc1` (centres unmarked) [Example 119, 5-(1-Ethyl-5,6-difluoroisoindolin-2-yl)pyrimidine-2-carboxamide], with 42000 nM; and `CCC1c2cc(F)c(OC)cc2CCN1c1ccnc(C(N)=O)n1` (centres unmarked) [Example 120, 4-(1-Ethyl-7-fluoro-6-methoxy-3,4-dihydro-1H-isoquinolin-2-yl)pyrimidine-2-carboxamide], with 14000 nM; and `CCC1c2cc(F)c(F)cc2CN1c1ccnc(C(N)=O)n1` (centres unmarked) [Example 121, 4-(1-Ethyl-5,6-difluoroisoindolin-2-yl)pyrimidine-2-carboxamide], with 18000 nM. Then `CCC1c2ccccc2CCN1c1cnc2c(ccc3cccnc32)c1` (centres unmarked) [Example 122, 3-(1-Ethyl-3,4-dihydroisoquinolin-2(1H)-yl)-1,10-phenanthroline], with 1200 nM; and `CC1c2ccc(F)c(F)c2CCN1c1cnc2c(ccc3cccnc32)c1` (centres unmarked) [Example 123, 3-(5,6-Difluoro-1-methyl-3,4-dihydroisoquinolin-2(1H)-yl)-1,10-phenanthroline], with 440 nM; and `CCC1c2ccccc2CCN1c1cnc2c(NC)nccc2c1` (centres unmarked) [Example 124, 3-(1-Ethyl-3,4-dihydroisoquinolin-2(1H)-yl)-N-methyl-1,7-naphthyridin-8-amine], with 22000 nM. `CCC1c2cc(F)c(OC)cc2CCN1c1cnc2c(=O)n(C)cnc2c1` (centres unmarked) [Example 125, 7-(1-Ethyl-7-fluoro-6-methoxy-3,4-dihydroisoquinolin-2(1H)-yl)-3-methylpyrido[3,2-d]pyrimidin-4(3H)-one]: the 50% effective concentration (EC50) stood at 1600 nM. Then `CCC1c2ccc(F)c(F)c2OCCN1c1ccnc(-c2ncccn2)n1` (centres unmarked) [Example 126, 5-Ethyl-8,9-difluoro-4-(2-pyrimidin-2-ylpyrimidin-4-yl)-3,5-dihydro-2H-1,4-benzoxazepine], with 28000 nM; and `CCC1c2cc(F)c(OC)cc2CCN1c1ccnc(-c2ncccn2)n1` (centres unmarked) [Example 127, 2-(2,2′-Bipyrimidin-4-yl)-1-ethyl-7-fluoro-6-methoxy-1,2,3,4-tetrahydroisoquinoline], with 20 nM. Then `CCC1c2cc(F)c(OC)cc2CCN1c1cnc(-c2ncccn2)nc1` (centres unmarked) [Example 132, 2-(2,2′-Bipyrimidin-5-yl)-1-ethyl-7-fluoro-6-methoxy-1,2,3,4-tetrahydroisoquinoline], with 7 nM; and `CCC1c2cc(F)c(OC)cc2CCCN1c1ccnc(-c2ncccn2)n1` (centres unmarked) [Example 135, 2-([2,2′-Bipyrimidin]-4-yl)-1-ethyl-8-fluoro-7-methoxy-2,3,4,5-tetrahydro-1H-benzo[c]azepine], with 1000 nM.
